According to patent publication US11752111B2, “Use of cannabidivarin in the treatment of autism spectrum disorder, associated disorders and schizophrenia” (GW Research Limited, priority 2016, dated 2023):

Key:
PCP-treated rats = experiment: Novel object recognition test, sub-chronic PCP model of schizophrenia; type: in vivo, rat
Protocol: Female hooded-Lister rats were used for this experiment. Rats were housed in groups of 5 under standard laboratory conditions under a 12 hr light: dark cycle, lights on at 0700 hr. Testing was carried out in the light phase.
Rats were randomly assigned to two treatment groups and treated with vehicle, n=20 (distilled water, i.p.) or Phencyclidine hydrochloride (PCP), n=100 (2 mg/kg, i.p. twice daily for 7-days). PCP was dissolved in distilled water. This was followed by a 7-day wash out period before the rats were tested following acute treatment with CBDV, risperidone or vehicle.
Risperidone (0.1 mg/kg) was dissolved in a minimum volume of acetic acid, made up to volume with distilled water and pH adjusted to 6 with 0.1M NaOH and administered via the i.p. route in a volume of 1 ml/kg, 60 min prior to testing.
CBDV at 2, 10 or 20 mg/kg was dissolved in 2:1:17 (Ethanol:Cremofor:Saline 0.9%) and administered via the i.p. route in a volume of 5 ml/kg, 60 min prior to testing.
Rats were allowed to habituate to the empty test box and the behavioural test room environment for 1h on day 1. Prior to behavioural testing on day 2 rats are given a further 3 min habituation.
Following the 3 min habituation period, the rats are given two 3 min trials (T1 and T2) which are separated by a 1 min inter-trial interval in the home cage during which the objects are changed. Behaviour in all trials was recorded on video for subsequent blind scoring.
In this trial, the animals are allowed to explore two identical objects (A1 and A2) for 3 min.
In this trial, the animals explore a familiar object (A) from T1 and a novel object (B) for 3 min. The familiar object presented during T2 is a duplicate of the object presented in T1 in order to avoid any olfactory trails.
The object exploration is defined by animals licking, sniffing or touching the object with the forepaws whilst sniffing, but not leaning against, turning around, standing or sitting on the object. The exploration time (s) of each object (A, B, familiar and novel) in each trial are recorded using two stopwatches and the following factors are calculated:
Discrimination index (DI), which is calculated as shown below: […]

Ube3am-/p+ (AS) mice [1] = experiment: Novel object recognition in Angelman syndrome model; type: in vivo, mouse; conditions: CBDV 20 mg/kg i.p.; AS mice at 7-8 weeks vs AS vehicle
Protocol: (§1) Heterozygous mice with maternal deficiency of Ube3A (Ube3am−/p+) and wild type (Ube3am+/p+) were purchased from The Jackson Laboratory (Jackson code: B6.129S7-Ube3a tm1Alb/J) and maintained in a C57BL/6 background.
(§2) Drugs were dissolved in 1:1:18 ethanol:cremophor:0.9% saline, for intraperitoneal (i.p.) administration. Drug treatment was performed daily for 35 days. CBDV was administered at 20 mg/kg.
Novel Object Recognition: The novel object recognition assesses recognition memory in mice. The experiment started with the habituation period, during which mice were allowed to freely explore for 1 hour the apparatus which consists of a rectangular open box (40×30×30 cm width×length×height) made of grey polyvinyl chloride (PVC) illuminated by a dim light. The day after each mouse was allowed to explore two identical objects positioned in the back left and right corners for 5 min (acquisition). A video camera recorded the time spent on exploration of each object. […] The behaviour of mice was analyzed by an observer blind to the treatment. Data are expressed as percentage of recognition index (RI %), which was calculated as the percentage of the time spent exploring the novel object/time spent exploring the novel object+time spent exploring the familiar object×100.

Ube3am-/p+ (AS) mice [2] = experiment: Rotarod test in Angelman syndrome model; type: in vivo, mouse; conditions: CBDV 20 mg/kg i.p. chronic treatment (30 days); AS mice vs AS vehicle
Protocol: as §1, §2
Rotarod: The rotarod test assesses balance and motor coordination of mice. Mice have been measured for the time (in seconds) of equilibrium before falling on a rotary cylinder by a magnet that, activated from the fall of the mouse on the plate, allows to record the time of permanence on the cylinder. […] The animals were analysed by 2 separate tests at 1-h interval in the same day.

VPA-exposed rats = experiment: Sociability and preference for social novelty, 3-chamber apparatus, prenatal VPA model; type: in vivo, rat
Protocol: Pregnant Sprague-Dawley rats (Charles River, Calco, Italy), received a single intraperitoneal injection of 500 mg/kg sodium valproate on the 12.5 day after conception, and control females were injected with physiological saline at the same time. Sodium valproate (Sigma Aldrich, Milan, IT) was dissolved in saline at a concentration of 250 mg/ml.
CBDV was dissolved in ethanol, cremophor and saline (1:1:18). Symptomatic treatment with CBDV at doses of 0.2, 2, 20, and 100 mg/kg/day i.p. was performed starting from PND 34 (early adolescence) till 56 (early adulthood), both in male and female offspring of dams injected with VPA 500 mg/kg (or vehicle) on day 12.5 after conception. At PND 56, a series of behavioural tests was performed in order to assess the effect of chronic CBDV on sociability, social novelty, short-term memory, locomotion and stereotyped/repetitive behaviours.
Sociability and preference for social novelty: These behaviours were investigated in a 3-chamber apparatus which allows for the measurement of social approach and social preference. In brief, animals were placed into a novel arena (80 cm×31.5 cm) composed of three communicating chambers separated by Perspex walls with central openings allowing access to all chambers for 5 min.
Following this acclimatisation period, animals were briefly confined to the central chamber while an unfamiliar rat confined in a small wire cage was placed in one of the outer chambers. An identical empty wire cage was placed in the other chamber. The unfamiliar rat was randomly assigned to either the right or left chamber of the arena. The test animal was then allowed to explore the arena/chambers for a further 5 min. Time spent engaging in investigatory behaviour with the rat was evaluated with the aid of Anymaze program (Ugo Basile, Italy) in order to examine social approach.
To investigate the preference for social novelty, a novel unfamiliar rat was then placed in the empty cage and the test animal was then allowed to explore the arena/chambers for a further 5 min. Time spent engaging in investigatory behaviour with the novel unfamiliar rat was evaluated with the aid of Anymaze program (Ugo Basile, Italy) in order to examine preference for social novelty.

C=C(C)[C@@H]1CCC(C)=C[C@H]1c1c(O)cc(CCC)cc1O [CBDV, Cannabidivarin]
discrimination index (DI) (FIG. 17) (PCP-treated rats; 10 and 20 mg/kg, PCP rats): statistically significant increase in the DI | time spent investigating two identical objects in Trial 1 (FIG. 16A) (PCP-treated rats; CBDV 2, 10 or 20 mg/kg i.p. 60 min prior to testing): no real preference | discrimination between familiar and novel objects, Trial 2 (FIG. 16B) (PCP-treated rats; CBDV 10 and 20 mg/kg i.p., PCP treated rats): reverse the cognitive dysfunction | discrimination index, novel object recognition (FIG. 13) (Ube3am-/p+ (AS) mice [1]): significantly increased the discrimination index | latency to fall, rotarod (FIG. 12) (Ube3am-/p+ (AS) mice [2]): reduced latency to fall | restoration of social novelty preference (FIG. 1A) (VPA-exposed rats; CBDV 20 mg/kg/day i.p. PND 34-56, VPA offspring, p<0.001 in males, p<0.01 in females): statistically significant effect | reduction of preference index compared to controls (VPA-exposed rats; VPA-CBDV animals, VPA alone about 48%): about 13% | impairment in sociability (FIG. 1B) (VPA-exposed rats; all doses (0.2, 2, 20, 100 mg/kg/day i.p.), VPA rats): significantly reduced the impairment in sociability | deficit in social preference (FIG. 1C), time exploring novel vs familiar rat (VPA-exposed rats; doses of 20 mg/kg and 100 mg/kg, VPA rats): reversed the deficit in social preference
